Results from US20120122923A1, “DUAL MOLECULES CONTAINING A PEROXIDE DERIVATIVE, THEIR SYNTHESIS AND THERAPEUTIC USES” (SANOFI-AVENTIS, priority 2006, published 2012).
Like-named read-outs stand apart in the source and are kept apart here.

Key:
[1] = Metabolic stability on human hepatic microsomes; format: in vitro ADME; details: for Percentage metabolization: human hepatic microsomes 1 mg/ml, 5 μM substrate, 1 mM NADPH, 20 minutes at 37° C., degradation with respect to T0
Experimental: These experiments were carried out on human hepatic microsomes in the presence of NADPH cofactor, necessary for the activity of the principal enzymes, namely cytochromes P-450 (CYP) and flavine mono-oxygenases (FMO). […] After 20 minutes, the reaction was stopped by adding 1 volume of acetonitrile. The supernatant was then removed after centrifuging (speed 3000 g for 10 minutes at 4° C.). The supernatant was analysed by high performance liquid chromatography coupled to a mass spectrometer (LC-MS/MS) and the degradation of each of the test compounds was calculated as a percentage (%) with respect to T0. The microsomal fractions were prepared from human hepatic tissue deriving from at least 12 different donors and frozen at −80° C. The tissue was defrosted then dried, weighed and cut into thin sheets before homogenizing. The tissue was homogenized using a Potter-Elvejheim type homogenizer at +4° C. The tissue homogenates were then centrifuged at 10000 g for 30 minutes at +4° C. […] The residue was finally taken up into suspension in a final volume of KH2PO4/K2HPO4 buffer containing 20% (v/v) of glycerol (1 ml for 2 grams of tissue). The hepatic microsomal fractions obtained were divided into aliquots (500 μl), frozen rapidly in liquid nitrogen and kept frozen at −80° C. until use. concentration of microsomal proteins: 1 mg/ml; concentration of BSA (bovine serum albumin (BSA): 1 mg/ml; concentration of substrate (test compound): 5 μM; CYP and FMO co-factors: 1 mM NADPH; Phosphate buffer (pH 7.4): 10 mM. • The reaction was initiated by adding 1 mM of NADPH and incubating for 20 minutes at 37° C., with stirring. The reaction was stopped by adding 1 volume of cold acetonitrile. • Total incubation volume=300 μl

[2] = test system: P. falciparum FcM29-Cameroon strain; test: Chemosensitivity test (radioactive micromethod, tritiated hypoxanthine incorporation), FcM29-Cameroon strain; format: cell-based; details: Plasmodium falciparum, 48 h, read-out: IC50 (concentration required to inhibit parasite growth by 50%)
Experimental: (§1) Strains of P. falciparum were cultivated continuously using Trager and Jensen's method (Science, 1976, 193, 673-675): the parasites were maintained in human red blood corpuscles (O±), diluted to a blood parasite level of 2% in RPMI 1640 medium supplemented with 25 mM Hepes+24 mM NaHCO3+2 mM L-glutamine and complemented with 5% human serum from all groups.
(§2) The parasites were incubated at 37° C., in a moist atmosphere and 5% CO2.
The antimalarial activity tests were carried out using the radioactive micromethod of Desjardins et al. (Antimicrob. Agents Chemother., 1979, 16, 710-718). Each molecule was tested in triplicate. The tests were carried out in 96 well microplates. The P. falciparum strains were cultured in RPMI 1640 solutions complemented with 5% human serum with haematocrit at 2% and a blood parasite level of 1.5%. For each test, the parasites were incubated with decreasing concentrations of test compounds for 48 h at 37° C., in a moist atmosphere and 5% CO2. The artemisinin and chloroquine diphosphate were used as reference molecules. The first dilution of the test compounds was carried out at 1 mg/ml in dimethylsulphoxide. The dilution series for the successive daughter solutions was also prepared in dimethylsulphoxide. Each daughter dilution was then diluted to 1/50th in RPMI 1640 complemented with 5% human serum, all of the dilutions being made at 37° C. Said dilutions were then added to the parasites in culture in the microplates. After adding the test compound, the parasites were cultured in RPMI 1640 with 5% human serum and 1% dimethylsulphoxide. Parasite growth was measured by the incorporation of tritiated hypoxanthine (added 24 h after beginning exposure to the test compound) and compared with the incorporation in the absence of the test compound (taken as 100%). The values for IC50 (concentrations required to inhibit parasite growth by 50%) were determined by plotting the percentage inhibition as a function of the logarithm of the dose using GraphPad Prism 4® processing software (GraphPad software, Inc., 5755 Oberlin Drive, #110, San Diego, Calif. 92121, USA).

[3] = test system: P. falciparum FcB1-Columbia strain; test: Chemosensitivity test (radioactive micromethod, tritiated hypoxanthine incorporation), FcB1-Columbia strain; format: cell-based; details: Plasmodium falciparum, read-out: IC50 (concentration required to inhibit parasite growth by 50%)
Experimental: as §1, §2
The antimalarial activity tests were carried out using the radioactive micromethod of Desjardins et al. (Antimicrob. Agents Chemother., 1979, 16, 710-718). Each molecule was tested in triplicate. The tests were carried out in 96 well microplates. The P. falciparum strains were cultured in RPMI 1640 solutions complemented with 5% human serum with haematocrit at 2% and a blood parasite level of 1.5%. For each test, the parasites were incubated with decreasing concentrations of test compounds for 48 h at 37° C., in a moist atmosphere and 5% CO2. The artemisinin and chloroquine diphosphate were used as reference molecules. The first dilution of the test compounds was carried out at 1 mg/ml in dimethylsulphoxide. […] Parasite growth was measured by the incorporation of tritiated hypoxanthine (added 24 h after beginning exposure to the test compound) and compared with the incorporation in the absence of the test compound (taken as 100%). […]

[4] = FcM29-Cameroon strain (very strongly chloroquine-resistant), in human red blood corpuscles
[5] = human hepatic microsomes, from Table 2

SMILES | Percentage metabolization [1] | melting point | also measured
Clc1ccc2c(NCCN3CCC4(CC3)OCC3(CCCCC3)OO4)ccnc2c1 [PA1110, reference compound] | 98% | – | –
CC1(C)COC2(CCC(N[C@@H]3CCCC[C@H]3Nc3ccnc4cc(Cl)ccc34)CC2)OO1 (stereo partly drawn) [PA1188, N-(7-chloro-quinolin-4-yl)-N′-(3,3-dimethyl-1,2,5-trioxa-spiro[5.5]undec-9-yl)-cyclohexane-trans-1,2-diamine] | – | – | IC50 [2, 4]: 4 nM
C[C@H]1[C@H](OC(=O)CCC(=O)O)O[C@@H]2O[C@@]3(C)CC[C@H]4[C@H](C)CC[C@@H]1[C@@]24OO3 [artesunate, reference compound] | 100% | – | –
CCN(CC)CCCC(C)Nc1ccnc2cc(Cl)ccc12 (centres unmarked) [chloroquine, reference compound] | 29% | – | IC50 [2]: 258 nM; IC50 ([3]; FCB1, 48 h): 66 nM
CC1(C)COC2(CCC(NC3CCC(Nc4cc(C(F)(F)F)nc5c(C(F)(F)F)cccc45)CC3)CC2)OO1 (stereo not drawn) [PA1251, N-(2,8-bis-trifluoromethyl-quinolin-4-yl)-N′-(3,3-dimethyl-1,2,5-trioxa-spiro[5.5]undec-9-yl)-cyclohexane-trans-1,4-diamine] | – | 168 °C (dec.) | –
CC(C)C1=C[C@H]2OC3(CCC(NCCNc4ccnc5cc(Cl)ccc45)CC3)OO[C@H]2CC1 (some centres unmarked) [DU1302, reference compound] | 95-100% | – | –
C[C@@H]1CC[C@H]2[C@@H](C)C(=O)O[C@@H]3O[C@@]4(C)CC[C@@H]1[C@]32OO4 [artemisinin, reference compound] | – | – | IC50 [2, 4]: 5 nM; IC50 ([3]; FcB1-Columbia strain (moderately chloroquine-resistant), in human red blood corpuscles, 48 h): 11 nM

The next lines start with results.

Percentage metabolization [1] | melting point | SMILES | also measured
11% | 176 °C (dec.) | CC1(C)COC2(CCC(NC3CCC(Nc4ccnc5cc(Cl)ccc45)CC3)CC2)OO1 (stereo not drawn) [PA1103, N-(7-chloro-quinolin-4-yl)-N′-(3,3-dimethyl-1,2,5-trioxa-spiro[5.5]undec-9-yl)-cyclohexane-trans-1,4-diamine] | times less degraded than chloroquine [1, 5]: about 3 times; times less degraded than the prior art compounds [1, 5]: about 10 times; stability in human hepatic microsomes compared with the other test compounds ([1]; in words): much more stable; IC50 [2, 4]: 6 nM
– | 165 °C (dec.) | CC1(C)COC2(CCC(NC3CCC(Nc4ccnc5ccc(OC(F)(F)F)cc45)CC3)CC2)OO1 (stereo not drawn) [PA1305, N-(6-trifluoromethoxy-quinolin-4-yl)-N′-(3,3-dimethyl-1,2,5-trioxa-spiro[5.5]undec-9-yl)-cyclohexane-trans-1,4-diamine] | –
– | 166 °C (dec.) | CC1OOC2(CCC(NC3CCC(Nc4ccnc5cc(Cl)ccc45)CC3)CC2)OC1C (stereo not drawn) [PA1255, N-(7-chloro-quinolin-4-yl)-N′-(3,4-dimethyl-1,2,5-trioxa-spiro[5.5]undec-9-yl)-cyclohexane-trans-1,4-diamine] | –
– | 193 °C (dec.) | CN(C)c1ccc2nccc(NC3CCC(NC4CCC5(CC4)OCC(C)(C)OO5)CC3)c2c1 (stereo not drawn) [PA1253, N-(3,3-dimethyl-1,2,5-trioxa-spiro[5.5]undec-9-yl)-N′-(6-dimethylamino-quinolin-4-yl)-cyclohexane-trans-1,4-diamine] | –
– | 166.5 °C (dec.) | CC1(C)COC2(CCC(NC3CCC(Nc4ccnc5cc(C(F)(F)F)ccc45)CC3)CC2)OO1 (stereo not drawn) [PA1252, N-(3,3-dimethyl-1,2,5-trioxa-spiro[5.5]undec-9-yl)-N′-(7-trifluoromethyl-quinolin-4-yl)-cyclohexane-trans-1,4-diamine] | –
